These results are taken from ChEMBL document CHEMBL5137025, “Tuberculosis Drug Discovery: Challenges and New Horizons” (J Med Chem, 2022).

By MIC99 is commonly meant an inhibitory concentration at the 99% level, which refers to growth in some studies and to a panel of isolates in others. By CC50 is commonly meant the concentration giving 50% cytotoxicity. In general, MIC90 refers to the lowest concentration that inhibits either 90% of growth or 90% of the strains tested, depending on the study. The term half-life denotes the time needed for the level to fall by half in the phase considered. What is called bioavailability is the share of a dose that reaches the circulation, judged against a reference dose that is usually intravenous. For orientation: pIC50 means −log10 of the IC50, conventionally taken in molar units. As a reminder, the MTD is the highest dose tested that stayed within the study's limit of toxicity. As a reminder, the MIC is the least concentration at which growth counts as inhibited.

The test system of data set [1] is Mycobacterium tuberculosis. The class given is functional. The following applies: H37Rv, 336 h, time 14 day.
Data set [2] in a line: Cytotoxicity against human THP-1 cells assessed as reduction in cell viability treated for 96 hrs by MTT assay. The data set is classed as toxicity, cell-based.
Data set [3] has as its system Mycobacterium tuberculosis. The class given is functional. The following applies: H37Rv, time 6 day.
Data set [4] concerns Mycobacterium tuberculosis. The class given is functional, H37Rv. The conditions noted are these: dose 200 mg/kg; route po; time 10 day.
Data set [5] has as its system HepG2. In words: Cytotoxicity against human HepG2 cells assessed as reduction in cell viability treated for 3 days by resazurin reduction microplate assay. The class given is functional. The conditions noted are these: HepG2, 72 h, time 3 day. A general note: Resazurin is reduced to fluorescent resorufin, in cell work by metabolically active cells.
Data set [6] concerns Mycobacterium tuberculosis. Put plainly: Antibacterial activity against Mycobacterium tuberculosis in chronic Mtb infection BALB/c mouse model assessed as reduction in log10 CFU in lungs at 100 mg/kg, po for 4 weeks. The class given is functional.
The nature of data set [7]: Half life in BALB/c mouse at 100 mg/kg, po by LC/MS analysis. The conditions noted are these: in vivo. The data set is classed as ADME, organism-based.
The test system of data set [8] is Mycobacterium tuberculosis. The class given is functional. The conditions noted are these: H37Rv.
The test system of data set [9] is Mycobacterium tuberculosis. The class given is functional, H37Rv. The conditions noted are these: dose 3.1 mg/kg; route po; time 4 weeks.
The nature of data set [10]: Cytotoxicity against African green monkey Vero cells assessed as reduction in cell viability treated for 72 hrs by CCK8 assay. The data set is classed as toxicity, cell-based. The conditions noted are these: chlorocebus sabaeus. (Tetrazolium dyes change colour on reduction, which living cells bring about.)
A short description of data set [11]: Cytotoxicity against African green monkey Vero cells assessed as reduction in cell viability treated for 3 days by Cell Titer Glo assay. The following applies: chlorocebus sabaeus, time 3 day. The class given is toxicity, cell-based. On the technique in general: Cellular ATP, detected with luciferase, serves as a proxy for viable cell number.
The nature of data set [12]: Half life in Sprague-Dawley rat at 10 mg/kg, po via gavage measured for 0.25 to 96 hrs by LC/MS analysis. The data set is classed as ADME, organism-based. The conditions noted are these: in vivo, time 0.25-96 hrs.
Data set [13] can be described thus: Oral bioavailability in Sprague-Dawley rat at 10 mg/kg via gavage measured for 0.25 to 96 hrs by LC/MS analysis. The following applies: in vivo, time 0.25-96 hrs. The class given is ADME, organism-based.
Data set [14] has as its target Voltage-gated inwardly rectifying potassium channel KCNH2 (Homo sapiens, UniProt Q12809). Put plainly: Inhibition of hERG expressed in human HEK293 cells by manual patch clamp method. The data set is classed as toxicity, cell-based.
Data set [15] can be described thus: Acute toxicity in 10 to 14 hr fasted Sprague-Dawley rat assessed as maximum tolerated dose administered orally via gavage. The following applies: in vivo, time 10-14 hrs, route po.
Data set [16] deals with Mycobacterium tuberculosis. The class given is functional, H37Rv. The conditions noted are these: dose 200 mg/kg; route po; time 4 weeks.
The subject of data set [17] is Mycobacterium tuberculosis. Put plainly: Antibacterial activity against Mycobacterium tuberculosis Erdman in acute Mtb infection BALB/c mouse model assessed as reduction in log10 CFU in lungs at 50 mg/kg, po via gavage for 8 weeks. The class given is functional.
Data set [18] deals with Mycolicibacterium smegmatis. In words: Inhibition of ATP synthesis in Mycobacterium smegmatis derived membrane vesicle incubated for 60 mins by luciferase based assay. The conditions noted are these: 1 h. The class given is functional.
In data set [19] the test system is Mycobacterium tuberculosis. The data set is classed as functional, H37Rv. The following applies: dose 100 mg/kg; route po; time 2 weeks.
Data set [20] has as its system Mycobacterium tuberculosis. Put plainly: microbe, parasite or virus in culture. The conditions noted are these: H37Rv.
Description: Antibacterial activity against Mycobacterium tuberculosis H37Rv assessed as inhibition of bacterial growth
Data set [21] relates to Mycobacterium tuberculosis. The class given is functional. The conditions noted are these: H37Rv, time 6 day. The source holds these as a separate data set.
Data set [22] concerns Mycobacterium tuberculosis. The data set is classed as functional, H37Rv. The following applies: dose 100 mg/kg; route po; time 4 weeks.
In data set [23] the test system is HepG2. In words: Cytotoxicity against human HepG2 cells treated for 48 hrs by resazurin dye based assay. The class given is functional.
In another data set the target is Cytochrome P450 3A4 (Homo sapiens, UniProt P08684). In words: Inhibition of CYP3A4 in human liver microsome using midazolam as substrate incubated for 10 mins in presence of NADP+ by LC-MS/MS analysis. The class given is ADME, microsomes.
Sequence of Cytochrome P450 3A4 (P08684 whole entry): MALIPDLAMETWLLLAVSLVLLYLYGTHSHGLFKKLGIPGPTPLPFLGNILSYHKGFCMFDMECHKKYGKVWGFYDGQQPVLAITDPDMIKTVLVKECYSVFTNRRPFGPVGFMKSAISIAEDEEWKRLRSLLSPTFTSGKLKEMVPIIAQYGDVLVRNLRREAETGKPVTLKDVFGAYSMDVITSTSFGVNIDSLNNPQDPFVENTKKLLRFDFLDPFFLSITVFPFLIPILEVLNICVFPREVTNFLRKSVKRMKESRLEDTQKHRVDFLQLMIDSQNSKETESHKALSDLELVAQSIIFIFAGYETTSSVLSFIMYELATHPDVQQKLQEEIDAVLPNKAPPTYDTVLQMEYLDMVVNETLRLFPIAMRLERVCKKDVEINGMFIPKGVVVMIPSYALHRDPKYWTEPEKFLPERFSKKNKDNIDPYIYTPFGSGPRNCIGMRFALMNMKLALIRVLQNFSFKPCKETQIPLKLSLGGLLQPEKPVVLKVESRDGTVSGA
The nature of data set [24]: Metabolic stability in human liver microsomes assessed as compound remaining measured after 1 hr in presence of NADP+ by LC-MS/MS analysis. The class given is ADME, Microsome. The conditions noted are these: read-out: Stability.
Data set [25] can be described thus: Metabolic stability in mouse liver microsomes assessed as compound remaining measured after 1 hr in presence of NADP+ by LC-MS/MS analysis. The class given is ADME, Microsome. The conditions noted are these: read-out: Stability.
The subject of data set [26] is Mycobacterium tuberculosis. The class given is functional. The following applies: H37Rv, 168 h, time 7 day.
In data set [27] the test system is Mycobacterium tuberculosis. The class given is functional, H37Rv. The conditions noted are these: dose 100 mg/kg; route po; time 3 weeks.
Data set [28] deals with Mycobacterium tuberculosis. The data set is classed as functional, H37Rv. The conditions noted are these: dose 50 mg/kg; route po; time 3 weeks.

pIC50: −log10 of the molar value. Values after ≈ are worked out from the molar mass of the structure shown. A value given as a limit tells only on which side of the number the result lay.

Sequence of Voltage-gated inwardly rectifying potassium channel KCNH2 (Q12809 whole entry): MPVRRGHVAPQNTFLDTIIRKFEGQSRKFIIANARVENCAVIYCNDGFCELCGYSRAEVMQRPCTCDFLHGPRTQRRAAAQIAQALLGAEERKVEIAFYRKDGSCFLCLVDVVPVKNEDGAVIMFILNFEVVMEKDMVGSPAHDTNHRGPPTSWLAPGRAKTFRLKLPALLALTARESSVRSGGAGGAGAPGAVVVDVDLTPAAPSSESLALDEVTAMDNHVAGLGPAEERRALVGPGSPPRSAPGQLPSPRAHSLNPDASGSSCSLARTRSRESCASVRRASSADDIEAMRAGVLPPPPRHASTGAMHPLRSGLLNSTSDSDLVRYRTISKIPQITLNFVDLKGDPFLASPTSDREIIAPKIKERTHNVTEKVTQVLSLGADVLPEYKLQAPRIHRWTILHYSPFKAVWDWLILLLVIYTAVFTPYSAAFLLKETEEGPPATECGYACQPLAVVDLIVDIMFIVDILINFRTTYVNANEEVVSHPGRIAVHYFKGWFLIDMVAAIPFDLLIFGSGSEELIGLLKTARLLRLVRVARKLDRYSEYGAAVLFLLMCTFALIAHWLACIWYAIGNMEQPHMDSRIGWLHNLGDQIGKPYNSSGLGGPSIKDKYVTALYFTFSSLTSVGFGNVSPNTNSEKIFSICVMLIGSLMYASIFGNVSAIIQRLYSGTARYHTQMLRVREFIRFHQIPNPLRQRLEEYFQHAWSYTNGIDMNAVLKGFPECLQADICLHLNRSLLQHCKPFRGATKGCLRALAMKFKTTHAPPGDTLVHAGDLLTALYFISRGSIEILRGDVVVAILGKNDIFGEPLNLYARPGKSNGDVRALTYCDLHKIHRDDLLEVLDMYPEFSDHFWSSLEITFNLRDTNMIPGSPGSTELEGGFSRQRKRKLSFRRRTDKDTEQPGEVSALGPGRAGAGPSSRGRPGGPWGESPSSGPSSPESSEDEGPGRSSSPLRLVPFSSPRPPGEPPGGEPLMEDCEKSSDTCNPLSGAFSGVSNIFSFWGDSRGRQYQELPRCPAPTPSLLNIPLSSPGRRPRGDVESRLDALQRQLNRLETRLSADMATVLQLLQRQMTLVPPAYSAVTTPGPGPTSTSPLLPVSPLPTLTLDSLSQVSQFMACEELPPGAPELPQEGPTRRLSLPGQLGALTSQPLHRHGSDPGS

In data set [1], `O=[N+]([O-])c1cc2cccnc2c2ncccc12` gave an MIC99 of 0.78 µM (≈ 0.176 µg/mL). The half-maximal cytotoxic concentration (CC50) at 96 h in data set [2] was greater than 25 µM.
In data set [3], `O=C(/C=C/c1cccs1)N1CCN(Cc2ccc3c(c2)OCO3)CC1` yielded an MIC90 of 0.14 µM (≈ 0.0499 µg/mL). Further, in data set [4], the Activity turned out to be 0.4 log10CFU. In addition, the CC50 in the data set on HepG2 [5] is 140 µM.
As for `Nc1nc(N)c(N=O)c(OCC2CCCCC2)n1`, the Activity in data set [6] was 0.9 log10CFU. Moreover, in data set [7], the half-life is 60 min.
The compound `COc1ccn2nc(C)c(C(=O)NCc3ccc(N4CCC(c5ccc(OC(F)(F)F)cc5)CC4)cc3)c2c1` returned an MIC90 in data set [8] of 0.011 µM (≈ 0.00592 µg/mL). In addition, the Activity is given as 2.2 log10CFU in data set [9], 2.2 log10CFU in data set [16] and 0.3 log10CFU in [17]. Further, the CC50 at 72 h in [10] and in [11] was greater than 100 µM in each case. For the same compound, the half-life in data set [12] is 1140 min. The compound also displayed a bioavailability in [13] of 94%. Moreover, the negative logarithm of the IC50 (pIC50) in [14] is less than 4.52. Further, the MTD in data set [15] is greater than 2000 mg/kg.
`CN(C)CCOc1ncc(Nc2cc(-c3ccccc3)nc3cc(-c4ccc(F)cc4)nn23)cc1F` had a pIC50 in data set [18] of 6.30. In addition, in data set [19], the Activity was 1.5 log10CFU. For the same compound, the MIC80 in [20] came out at 6.2 µM (≈ 3.02 µg/mL).
`CC(C)c1ccc(-c2nc(CN3CCN(c4ccnc5cc(-c6cccnc6)ccc45)CC3)no2)cc1` registered a minimum inhibitory concentration (MIC) in data set [21] of 1 µM (≈ 0.491 µg/mL). In addition, the Activity in data set [22] is reported as 0.6 log10CFU. The same compound registered a 50% cytotoxic concentration (CC50) in the data set with HepG2 [23] greater than 130 µM. Besides, on Cytochrome P450 3A4, the negative logarithm of the IC50 (pIC50) was less than 4.60. For the same compound, the remaining at 1 h in [24] is 40%; in data set [25], 1.2%.
`CC(=O)NC[C@@H]1OC(=O)N2c3cc(F)c(N4CCSCC4)cc3OC[C@@H]12`: in data set [26], the MIC90 was found to be 0.08 µM (≈ 0.0305 µg/mL). The Activity is listed as 5.1 log10CFU in [27] and “>=3 log10CFU” in data set [28].
